We go through 52 compounds from patent publication US12064426B2, “Selective inhibitors of ROCK1 and ROCK2 protein kinases and uses thereof” (GENOSCO Inc., priority 2021, dated 2024).

The structures appear in SMILES notation.

Assay [1] concerns the target T1, Recombinant ROCK1 (amino acids 1-477) (Homo sapiens, UniProt Q13464).
T1 construct: Recombinant ROCK1 (amino acids 1-477); by word order, ROCK1 from Carna Biosciences
Description: ROCK inhibition assay, LANCE Ultra TR-FRET kinase assay (ROCK1). Particulars: 1 μM ATP, 50 nM ULight-CREBtide substrate. In kind it is biochemical. In a few lines:
(§1)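 LANCE Ultra TR-FRET kinase assay with recombinant ROCK1 (aa 1-477) or ROCK2 (aa 5-554), 50 nM ULight-CREBtide and ATP at 1 μM (ROCK1) or 4 μM (ROCK2) in HEPES pH 7.5 with MgCl2, 1 h at room temperature. EDTA stop with Eu anti-phospho-CREB Ser133 antibody; 665/615 nm read gives IC50.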
On the technique in general: Time-resolved FRET reads energy transfer from a long-lived donor to a nearby acceptor.

In assay [2] the target is T2, Recombinant ROCK2 (amino acids 5-554) (Homo sapiens, UniProt O75116).
T2 construct: ROCK2 (amino acids 5-554); by word order, ROCK2 from SignalChem
T2 sequence (O75116 5-554): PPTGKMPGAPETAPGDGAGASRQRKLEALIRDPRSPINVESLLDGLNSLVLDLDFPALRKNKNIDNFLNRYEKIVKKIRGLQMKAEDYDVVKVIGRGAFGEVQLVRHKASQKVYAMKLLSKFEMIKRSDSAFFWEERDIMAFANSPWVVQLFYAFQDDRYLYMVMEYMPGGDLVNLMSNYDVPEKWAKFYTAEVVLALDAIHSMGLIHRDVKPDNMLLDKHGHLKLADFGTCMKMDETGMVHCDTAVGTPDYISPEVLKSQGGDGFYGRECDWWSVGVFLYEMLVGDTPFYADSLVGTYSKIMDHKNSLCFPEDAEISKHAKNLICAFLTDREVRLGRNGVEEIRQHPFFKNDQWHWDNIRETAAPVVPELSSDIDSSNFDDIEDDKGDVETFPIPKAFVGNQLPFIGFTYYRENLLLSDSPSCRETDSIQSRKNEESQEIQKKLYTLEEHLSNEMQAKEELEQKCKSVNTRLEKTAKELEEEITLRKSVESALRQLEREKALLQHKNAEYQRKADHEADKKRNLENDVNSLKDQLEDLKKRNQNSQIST
Put plainly: ROCK inhibition assay, LANCE Ultra TR-FRET kinase assay (ROCK2). In kind it is biochemical. Particulars: 4 μM ATP, 50 nM ULight-CREBtide substrate. In a few lines: as §1

T1 sequence (Q13464 1-477): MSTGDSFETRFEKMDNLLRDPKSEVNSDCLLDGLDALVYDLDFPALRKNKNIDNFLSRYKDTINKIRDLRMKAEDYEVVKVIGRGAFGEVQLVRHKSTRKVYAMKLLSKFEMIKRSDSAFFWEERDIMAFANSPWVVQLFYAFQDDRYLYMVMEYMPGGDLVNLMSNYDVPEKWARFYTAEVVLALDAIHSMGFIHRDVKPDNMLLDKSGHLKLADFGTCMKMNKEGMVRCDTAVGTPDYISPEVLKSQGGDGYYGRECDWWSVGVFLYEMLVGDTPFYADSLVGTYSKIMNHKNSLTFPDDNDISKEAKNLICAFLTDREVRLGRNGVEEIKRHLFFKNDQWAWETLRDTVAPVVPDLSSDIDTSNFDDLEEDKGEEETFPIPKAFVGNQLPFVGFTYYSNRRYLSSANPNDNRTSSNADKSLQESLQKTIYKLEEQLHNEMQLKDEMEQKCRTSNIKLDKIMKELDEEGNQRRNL

For the compound `CNC(=O)c1cc(F)cc(Cn2ccc3cc(-c4cn[nH]c4C)ncc3c2=O)c1` [Compound 248], the IC50 in assay [1] lay in the range of 11 to 100 nM; in assay [2], 10 to 100 nM.

With `CNC(=O)c1cc(F)cc(Cn2ccc3cc(-c4c[nH]nc4Cl)ncc3c2=O)c1` [Compound 249], the IC50 in assay [1] and in assay [2] was under 10 nM each time.

With `CNC(=O)c1cc(F)cc(Cn2ccc3cc(-c4ccnc(N)c4)ncc3c2=O)c1` [Compound 251], the IC50 is 101 to 500 nM in assay [1] and 10 to 100 nM in assay [2].

With `CNC(=O)c1cc(F)cc(Cn2ccc3cc(-c4c[nH]nc4C(F)F)ncc3c2=O)c1` [Compound 252], the IC50 was 11 to 100 nM in assay [1] and under 10 nM in assay [2].

For `Cc1n[nH]cc1-c1cc2ccn(Cc3cc(F)cc(C(=O)NC4CCOCC4)c3)c(=O)c2cn1` [Compound 253], the results for the IC50 in assay [1] and in assay [2] were 11 to 100 nM and under 10 nM, respectively.

With `CCNC(=O)c1cc(F)cc(Cn2ccc3cc(-c4c[nH]nc4C)ncc3c2=O)c1` [Compound 254], the results for the IC50 in assay [1] and in assay [2] were 11 to 100 nM and under 10 nM, respectively.

Turning to `Cc1n[nH]cc1-c1cc2ccn(Cc3cc(F)cc(C(=O)NCC4CCN(C)CC4)c3)c(=O)c2cn1` [Compound 256], the half-inhibitory concentration (IC50) in assay [1] and in assay [2] was under 10 nM in each case.

With `CN1CCC(CNC(=O)c2cc(F)cc(Cn3ccc4cc(-c5c[nH]nc5C(F)(F)F)ncc4c3=O)c2)CC1` [Compound 257], the IC50 in assay [1] and in assay [2] was under 10 nM throughout.

Regarding `O=C(NCC1COC1)c1cc(F)cc(Cn2ccc3cc(-c4c[nH]nc4C(F)(F)F)ncc3c2=O)c1` [Compound 258], the values for the IC50 in assay [1] and in assay [2] were 11 to 100 nM and under 10 nM, respectively.

Regarding `CN1CCC(NC(=O)c2cc(F)cc(Cn3ccc4cc(-c5c[nH]nc5C(F)(F)F)ncc4c3=O)c2)CC1` [Compound 259], the IC50 in assay [1] was 11 to 100 nM; in assay [2], under 10 nM.

Take `O=C(N[C@H]1CC[C@H](O)CC1)c1cc(F)cc(Cn2ccc3cc(-c4c[nH]nc4C(F)(F)F)ncc3c2=O)c1` [Compound 260]: the IC50 is 11 to 100 nM in assay [1] and under 10 nM in assay [2].

Consider `CN1CCC(NC(=O)c2cc(F)cc(Cn3ccc4cc(-c5c[nH]nc5Cl)ncc4c3=O)c2)CC1` [Compound 261], for which the concentration for half-maximal inhibition (IC50) in assay [1] and in assay [2] was under 10 nM each time.

With `O=C(N[C@H]1CC[C@@H](O)CC1)c1cc(F)cc(Cn2ccc3cc(-c4c[nH]nc4Cl)ncc3c2=O)c1` [Compound 262], the IC50 in assay [1] and in assay [2] was under 10 nM in each case.

In the case of `O=C(N[C@H]1CC[C@H](O)CC1)c1cc(F)cc(Cn2ccc3cc(-c4c[nH]nc4Cl)ncc3c2=O)c1` [Compound 263], the IC50 in assay [1] is 11 to 100 nM; in assay [2] it was under 10 nM.

Consider `CC(C)NC(=O)c1cc(F)cc(Cn2ccc3cc(-c4c[nH]nc4Cl)ncc3c2=O)c1` [Compound 264], for which the IC50 in assay [1] was 11 to 100 nM; in assay [2] it was under 10 nM.

As for `Cc1nocc1-c1cc2ccn(Cc3cc(F)cc(C(=O)NCC4CCN(C)CC4)c3)c(=O)c2cn1` [Compound 265], the IC50 in assay [1] was 11 to 100 nM; in assay [2] it was under 10 nM.

Regarding `Cc1nocc1-c1cc2ccn(Cc3cc(F)cc(C(=O)NCC4CCOCC4)c3)c(=O)c2cn1` [Compound 266], the IC50 was 11 to 100 nM in assay [1] and under 10 nM in assay [2].

Take `Cc1nocc1-c1cc2ccn(Cc3cc(F)cc(C(=O)NCCN4CCOCC4)c3)c(=O)c2cn1` [Compound 267]: the IC50 in assay [1] is 11 to 100 nM; in assay [2], under 10 nM.

In the case of `CN1CCN(CCNC(=O)c2cc(F)cc(Cn3ccc4cc(-c5ccnn5C)ncc4c3=O)c2)CC1` [Compound 268], the IC50 in assay [1] was 11 to 100 nM; in assay [2] it was under 10 nM.

For the compound `Cn1nccc1-c1cc2ccn(Cc3cc(F)cc(C(=O)NCC4COC4)c3)c(=O)c2cn1` [Compound 269], the IC50 in assay [1] is 101 to 500 nM; in assay [2], 10 to 100 nM.

Regarding `Cn1nccc1-c1cc2ccn(Cc3cc(F)cc(C(=O)NCC4CCOCC4)c3)c(=O)c2cn1` [Compound 270], the IC50 is 11 to 100 nM in assay [1] and 10 to 100 nM in assay [2].

For the compound `Cn1nccc1-c1cc2ccn(Cc3cc(F)cc(C(=O)NCCc4cccnc4)c3)c(=O)c2cn1` [Compound 271], the IC50 in assay [1] and in assay [2] was under 10 nM each time.

Take `CC(C)NC(=O)c1cc(F)cc(Cn2ccc3cc(-c4c[nH]nc4Br)ncc3c2=O)c1` [Compound 272]: the half-maximal inhibitory concentration (IC50) in assay [1] and in assay [2] was under 10 nM each time.

Regarding `CN1CCC(CNC(=O)c2cc(F)cc(Cn3ccc4cc(-c5c[nH]nc5Br)ncc4c3=O)c2)CC1` [Compound 273], the IC50 in assay [1] and in assay [2] was under 10 nM throughout.

As to `CN1CCC(CNC(=O)c2cc(F)cc(Cn3ccc4cc(-c5c[nH]nc5C(F)F)ncc4c3=O)c2)CC1` [Compound 274], the IC50 in assay [1] and in assay [2] was under 10 nM throughout.

For `O=C(N[C@H]1CC[C@@H](O)CC1)c1cc(F)cc(Cn2ccc3cc(-c4c[nH]nc4C(F)F)ncc3c2=O)c1` [Compound 275], the IC50 in assay [1] is 11 to 100 nM; in assay [2], under 10 nM.

For `O=C(NCC1CCOCC1)c1cc(F)cc(Cn2ccc3cc(-c4c[nH]nc4C(F)F)ncc3c2=O)c1` [Compound 276], the IC50 in assay [1] is 11 to 100 nM; in assay [2], under 10 nM.

As for `[2H]C([2H])([2H])NC(=O)c1cccc(Cn2ccc3cc(-c4cn[nH]c4C(F)(F)F)ccc3c2=O)c1` [Compound 278], the results for the IC50 in assay [1] and in assay [2] were 11 to 100 nM and under 10 nM, respectively.

For `CNC(=O)c1cccc(C(C)n2ccc3cc(-c4cn[nH]c4C(F)(F)F)ccc3c2=O)c1` (centres unmarked) [Compound 279], the values for the IC50 in assay [1] and in assay [2] were 11 to 100 nM and under 10 nM, respectively.

`[2H]C([2H])([2H])NC(=O)c1cc(F)cc(Cn2ccc3cc(-c4cn[nH]c4C(F)(F)F)ccc3c2=O)c1` [Compound 282]: the IC50 in assay [1] was 11 to 100 nM; in assay [2], under 10 nM.

As for `CNC(=O)c1cc(F)cc(C(C)n2ccc3cc(-c4cn[nH]c4C(F)(F)F)ccc3c2=O)c1` (centres unmarked) [Compound 283], the figures for the IC50 in assay [1] and in assay [2] were 11 to 100 nM and under 10 nM, respectively.

On to `CNC(=O)c1cc(Cn2ccc3cc(-c4cn[nH]c4C(F)(F)F)ccc3c2=O)ccc1F` [Compound 284], for which the results for the IC50 in assay [1] and in assay [2] were 101 to 500 nM and 10 to 100 nM, respectively.

With `CNC(=O)c1cc(Cl)cc(Cn2ccc3cc(-c4cn[nH]c4C(F)(F)F)ccc3c2=O)c1` [Compound 285], the IC50 in assay [1] was in the range of 101 to 500 nM; in assay [2] it was 10 to 100 nM.

For `CNC(=O)c1cccc(Cn2ccc3cc(-c4cn[nH]c4C(F)F)ccc3c2=O)c1` [Compound 286], the results for the IC50 in assay [1] and in assay [2] were 11 to 100 nM and under 10 nM, respectively.

In the case of `CNC(=O)c1cccc(C(C)n2ccc3cc(-c4cn[nH]c4C(F)F)ccc3c2=O)c1` (centres unmarked) [Compound 287], the IC50 in assay [1] was 11 to 100 nM; in assay [2] it was under 10 nM.

Turning to `[2H]C([2H])([2H])NC(=O)c1cccc(C(C)n2ccc3cc(-c4cn[nH]c4C(F)F)ccc3c2=O)c1` (centres unmarked) [Compound 288], the IC50 in assay [1] was 11 to 100 nM; in assay [2] it was under 10 nM.

On to `CNC(=O)c1cc(F)cc(Cn2ccc3cc(-c4cn[nH]c4C(F)F)ccc3c2=O)c1` [Compound 289], for which the values for the IC50 in assay [1] and in assay [2] were 11 to 100 nM and under 10 nM, respectively.

With `CNC(=O)c1cccc(Cn2ccc3cc(-c4cn[nH]c4Cl)ccc3c2=O)c1` [Compound 290], the values for the IC50 in assay [1] and in assay [2] were 11 to 100 nM and under 10 nM, respectively.

For `[2H]C([2H])([2H])NC(=O)c1cccc(Cn2ccc3cc(-c4cn[nH]c4Cl)ccc3c2=O)c1` [Compound 291], the values for the IC50 in assay [1] and in assay [2] were 11 to 100 nM and under 10 nM, respectively.

In the case of `CNC(=O)c1cccc(C(C)n2ccc3cc(-c4cn[nH]c4Cl)ccc3c2=O)c1` (centres unmarked) [Compound 292], the IC50 in assay [1] is 11 to 100 nM; in assay [2], under 10 nM.

As to `CNC(=O)c1cc(F)cc(Cn2ccc3cc(-c4cn[nH]c4Cl)ccc3c2=O)c1` [Compound 293], the figures for the IC50 in assay [1] and in assay [2] were 11 to 100 nM and under 10 nM, respectively.

With `CNC(=O)c1cc(F)cc(C(C)n2ccc3cc(-c4cn[nH]c4Cl)ccc3c2=O)c1` (centres unmarked) [Compound 294], the results for the IC50 in assay [1] and in assay [2] were 11 to 100 nM and under 10 nM, respectively.

With `[2H]C([2H])([2H])NC(=O)c1cccc(Cn2ccc3cc(-c4cn[nH]c4F)ccc3c2=O)c1` [Compound 296], the IC50 is 11 to 100 nM in assay [1] and under 10 nM in assay [2].

Take `CNC(=O)c1cccc(Cn2ccc3cc(-c4cn[nH]c4F)ccc3c2=O)c1` [Compound 297]: the half-inhibitory concentration (IC50) in assay [1] was 11 to 100 nM; in assay [2], under 10 nM.

With `CNC(=O)c1cc(F)cc(C(C)n2ccc3cc(-c4cn[nH]c4F)ccc3c2=O)c1` (centres unmarked) [Compound 298], the IC50 in assay [1] is 11 to 100 nM; in assay [2] it was under 10 nM.

`CNC(=O)c1cccc(Cn2ccc3cc(-c4cnn(C)c4)ccc3c2=O)c1` [Compound 299]: the IC50 in assay [1] was over 501 nM; in assay [2] it was over 500 nM.

`CNC(=O)c1cccc(Cn2ccc3cc(-c4cnoc4)ccc3c2=O)c1` [Compound 300]: the IC50 in assay [1] was over 501 nM; in assay [2], over 500 nM.

Take `CNC(=O)c1cccc(Cn2ccc3cc(-c4cnoc4C)ccc3c2=O)c1` [Compound 301]: the figures for the IC50 in assay [1] and in assay [2] were over 501 nM and over 500 nM, respectively.

Take `CNC(=O)c1cccc(Cn2ccc3cc(-c4ccoc4)ccc3c2=O)c1` [Compound 302]: the results for the IC50 in assay [1] and in assay [2] were over 501 nM and over 500 nM, respectively.

On to `CNC(=O)c1cccc(Cn2ccc3cc(-c4ccoc4C)ccc3c2=O)c1` [Compound 303], for which the figures for the IC50 in assay [1] and in assay [2] were over 501 nM and over 500 nM, respectively.

Take `CNC(=O)c1cccc(Cn2ccc3cc(C4=CCOC4)ccc3c2=O)c1` [Compound 304]: the IC50 in assay [1] is over 501 nM; in assay [2], over 500 nM.

Consider `CNC(=O)c1cccc(Cn2ccc3cc(-c4cc[nH]c4)ccc3c2=O)c1` [Compound 305], for which the results for the IC50 in assay [1] and in assay [2] were 101 to 500 nM and 100 to 500 nM, respectively.

One may read the IC50 as the concentration that inhibits the measured activity by half.
